In publication PMC9494960, “Antiamoebic Activity of Imidazothiazole Derivatives against Opportunistic Pathogen Acanthamoeba castellanii” (Antibiotics, 2022):

Assays:
[1] = system: A. castellanii genotype T4 (ATCC 50492) trophozoites; assay: Amoebicidal assay (Trypan blue exclusion, haemocytometer counting); format: cell-based, Acanthamoeba castellanii; settings: for Amoebicidal Activity Inhibition % ± SEM: 50 µM concentration, Supplementary Table S1; for amoebicidal effects / antiamoebic activity against A. castellanii: 50 µM, 24 h, 30 °C; for IC50: tested at 12.5, 25, 50 and 100 µM against A. castellanii
Procedure: A. castellanii genotype T4 (ATCC 50492) trophozoites were used in this study. The amoebae were axenically cultivated at 30 °C in T-75 cm^3 culture flask using a proteose-peptone yeast extract-glucose (PYG) broth culture. Upon confluency, amoeba cultured flask was placed on ice for 10 min followed by gently tapping to dislodge the adhered trophozoites. Next, culture was centrifuged at 3000× g for 5 min. The supernatant was discarded and the pellet was re-suspended in 1 mL of Roswell Park Memorial Institute (RPMI) media. Finally, amoebae were counted via haemocytometer microscopically and the desired initial inoculum (5 × 10^5) was adjusted and used in different assays. Different molecules were tested against A. castellanii to examine their antiamoebic effects as previously reported. Briefly, A. castellanii (5 × 10^5) were incubated with 50 µM of the tested compounds for 24 h at 30 °C with a final assays volume of 0.5 mL in a 24-well plate. For controls, amoebae cultured in RPMI alone and with 0.25% sodium dodecyl sulfate (SDS) was taken as negative and positive control, respectively. Finally, each well was stained with Trypan blue (0.1%) and viable amoebae trophozoites were enumerated by haemocytometer. In some trails, these compounds were tested at different concentrations (12.5, 25, 50 and 100 µM) to determine their 50% inhibitory concentration (IC50) against A. castellanii.

HeLa cells = assay: In vitro cytotoxicity, lactate dehydrogenase (LDH) assay; format: cell-based, human; settings: 50 µM, 24 h, LDH release
Procedure: HeLa cells were obtained from the American Type Culture Collection (ATCC CCL-2) and grown at 37 °C with 5% CO2 and 95% humidity in RPMI supplemented with 10% fetal bovine serum (FBS), 1% minimum essential medium amino acids, 1% Penicillin-Streptomycin (Pen-Strep) and 1% L-glutamine. The media was removed aseptically, and cells were detached enzymatically using 2 mL of trypsin EDTA. Next, culture containing dislodged cells was centrifuged at 2500× g for 5 min. The cell pellet was resuspended in the above-mentioned media, subsequently added into 96-well plates and utilized in different assays. In vitro cytotoxic effects of the tested molecules were determined using Lactate dehydrogenase (LDH) assays against human cells. In brief, 50 µM concentration of the tested compounds were incubated with HeLa cells monolayer for 24 h at 37 °C with 5% CO2 in humidified conditions. After this incubation, 0.1% triton X-100 was added to the positive control wells and incubated the plate for 45 min at 37 °C. Then, an equal volume of cells supernatant containing liberated LDH enzyme was mixed with an equal volume of LDH kit reagents (Cytotoxicity Detection kit; Roche Diagnostics, Indianapolis, IN, USA). The positive and negative controls were cell monolayers treated with 0.1 percent Triton X-100 and in RPMI alone. The plate was subjected to multi-plate reader and absorbance was recorded at 490 nm. The percent cytotoxicity was calculated using given formula; % Cell cytotoxicity = sample value − negative control value/positive control value − negative control value × 100.

[2] = system: A. castellanii binding to HeLa cells; assay: Adhesion assay: amoebae binding to human cells; format: cell-based, Acanthamoeba castellanii; settings: amoebae pre-treated with 50 µM for 2 h; 60 min on HeLa monolayer
Procedure: Adhesion assays were performed to determine how the tested molecules affect the binding capability of amoebae to human cells. Firstly, A. castellanii (5 ×10^5) trophozoites were treated with 50 µM of the compounds in serum-free RPMI medium at 30 °C for 2 h. Next, pre-treated amoebae were centrifuged at 3000× g for 5 min and re-suspended the amoeba in 200 µL of RPMI medium. The total assay volume including pre-treated amoeba was transferred to a confluent HeLa cell monolayer cultured in 96-well plates. For control, amoebae trophozoites alone were added to HeLa cell monolayer. The plates were incubated for 60 min at 37 °C with 5% CO2 and 95% humidity and amoebae (unbound) were then counted by haemocytometer. Percent bound amoebae was calculated using the following formula: % amoebae (bound) = 100 − amoebae (unbound)(1)

human cell lines = assay: MTT assay (EC50/CC50 and MNTD90); format: cell-based; settings: for CC50: 50% effective/cytotoxic concentration (CC50), tested at 12.5–100 µM; for EC90: Maximum Non-Toxic Dose, read-out: MNTD/EC90
[3] = system: A. castellanii trophozoites; assay: Encystation assay; format: cell-based, Acanthamoeba castellanii; settings: 50 µM, 16% glucose, 30 °C, 48–72 h; negative control 100%
Procedure: Encystation assays were performed to determine the effects of the tested compounds to prevent the differentiation of A. castellanii trophozoites into the cyst form and 50 µM of the tested compounds were utilized. Briefly, A. castellanii (1 × 10^6) trophozoites were incubated with these compounds with 16% filter-sterilized glucose (as encystation medium) at 30 °C 48–72 h. A. castellanii cultured alone in 16% glucose was taken as negative control. After this incubation, 0.1% sodium dodecyl sulfate (SDS) was added to each well and agitated the plate for 20 min. The SDS resistant cysts were enumerated using a haemocytometer and data was recoded.

Row | SMILES | Amoebicidal Activity Inhibition % ± SEM [1] | IC50 [1] | other results
1 | COc1cccc(NC(=O)NCCNc2nccc(-c3c(-c4ccc(F)cc4)nc4sccn34)n2)c1 [Compound 1a] | 7.70% ± 3.57% |  | cytotoxicity against HeLa cells (HeLa cells): 35%
2 | O=C(NCCNc1nccc(-c2c(-c3ccc(F)cc3)nc3sccn23)n1)Nc1cccc(C(F)(F)F)c1 [Compound 1b] | 12.86% ± 5.93% |  | 
3 | O=C(NCCNc1nccc(-c2c(-c3ccc(F)cc3)nc3sccn23)n1)Nc1cc(C(F)(F)F)cc(C(F)(F)F)c1 [Compound 1c] | 17.28% ± 1.88% |  | 
4 | Cc1ccc(C(=O)NCCNc2nccc(-c3c(-c4ccc(F)cc4)nc4sccn34)n2)cc1 [Compound 1d] | 39.50% ± 1.53% |  | 
5 | COc1ccc(C(=O)NCCNc2nccc(-c3c(-c4ccc(F)cc4)nc4sccn34)n2)cc1OC [Compound 1e] | 44.50% ± 1.79% |  | inhibition of amoebae binding to human cells [2]: 40%
6 | O=C(NCCNc1nccc(-c2c(-c3ccc(F)cc3)nc3sccn23)n1)c1ccc2c(c1)OCCO2 [Compound 1f] | 40.50% ± 4.84% |  | 
7 | O=C(NCCNc1nccc(-c2c(-c3ccc(F)cc3)nc3sccn23)n1)c1ccccc1O [Compound 1g] | 42.20% ± 3.29% |  | 
8 | O=C(NCCNc1nccc(-c2c(-c3ccc(F)cc3)nc3sccn23)n1)c1cccc(C(F)(F)F)c1 [Compound 1h] | 38.16% ± 3.74% |  | 
9 | Cc1cn(-c2cc(C(=O)NCCNc3nccc(-c4c(-c5ccc(F)cc5)nc5sccn45)n3)cc(C(F)(F)F)c2)cn1 [Compound 1j] | 42.34% ± 3.81% |  | 
10 | O=C(NCCNc1nccc(-c2c(-c3ccc(F)cc3)nc3sccn23)n1)c1cc(N2CCOCC2)cc(C(F)(F)F)c1 [Compound 1k] | 16.58% ± 6.08% |  | amoebicidal effects / antiamoebic activity against A. castellanii [1]: did not show promising antiamoebic activity
11 | CC(C)(C)OC(=O)N1CCN(CCNc2nccc(-c3c(-c4ccc(F)cc4)nc4sccn34)n2)S1(=O)=O [Compound 1l] | 47.41% ± 1.67% | 59.9 µM | inhibition of amoebae binding to human cells [2]: 42%
12 | COc1cccc(-c2nc3sccn3c2-c2ccnc(NCCNC(=O)Nc3cc(C(F)(F)F)cc(C(F)(F)F)c3)n2)c1 [Compound 1n] | 51.05% ± 2.36% | 47.5 µM | CC50 (human cell lines): 648 µM; EC90 (human cell lines): 16.4 µM
13 | COc1cccc(-c2nc3sccn3c2-c2ccnc(NCCNC(=O)c3ccccc3)n2)c1 [Compound 1o] | 11.78% ± 11.34% |  | amoebicidal effects / antiamoebic activity against A. castellanii [1]: did not show promising antiamoebic activity
14 | COc1cccc(-c2nc3sccn3c2-c2ccnc(NCCNC(=O)c3ccccc3O)n2)c1 [Compound 1p] | 36.42% ± 5.43% |  | 
15 | COc1cccc(-c2nc3sccn3c2-c2ccnc(NCCNC(=O)c3cccc(C(F)(F)F)c3)n2)c1 [Compound 1q] | 52.41% ± 5.31% | 47.7 µM | CC50 (human cell lines): 584 µM; EC90 (human cell lines): 30.6 µM; cytotoxicity against HeLa cells (HeLa cells): 38%
16 | COc1cccc(-c2nc3sccn3c2-c2ccnc(NCCNC(=O)c3cc(C(F)(F)F)cc(C(F)(F)F)c3)n2)c1 [Compound 1r] | 44.91% ± 8.42% | 64.7 µM | CC50 (human cell lines): 183 µM; EC90 (human cell lines): 33.9 µM
17 | COc1cccc(-c2nc3sccn3c2-c2ccnc(NCCNC(=O)c3ccc(N4CCOCC4)c(C(F)(F)F)c3)n2)c1 [Compound 1s] | 39.10% ± 2.31% |  | 
18 | COc1cccc(-c2nc3sccn3c2-c2ccnc(NCCNC(=O)c3cc(N4CCOCC4)cc(C(F)(F)F)c3)n2)c1 [Compound 1t] | 17.46% ± 3.75% |  | amoebicidal effects / antiamoebic activity against A. castellanii [1]: did not show promising antiamoebic activity
19 | O=C(NCCNc1nccc(-c2c(-c3cccc(O)c3)nc3sccn23)n1)Nc1ccccc1 [Compound 1u] | 12.66% ± 5.04% |  | amoebicidal effects / antiamoebic activity against A. castellanii [1]: did not show promising antiamoebic activity
20 | O=C(NCCNc1nccc(-c2c(-c3cccc(O)c3)nc3sccn23)n1)Nc1cccc(C(F)(F)F)c1 [Compound 1v] | 44.86% ± 2.98% | 60 µM | CC50 (human cell lines): 222 µM; EC90 (human cell lines): 5.36 µM
21 | O=C(NCCNc1nccc(-c2c(-c3cccc(O)c3)nc3sccn23)n1)Nc1cc(C(F)(F)F)cc(C(F)(F)F)c1 [Compound 1w] | 50.25% ± 4.67% | 46.3 µM | CC50 (human cell lines): 304 µM; EC90 (human cell lines): 36.1 µM
22 | O=C(NCCNc1nccc(-c2c(-c3cccc(O)c3)nc3sccn23)n1)c1ccccc1 [Compound 1x] | 48.02% ± 3.69% | 54 µM | EC90 (human cell lines): 102 µM
23 | O=C(NCCNc1nccc(-c2c(-c3cccc(O)c3)nc3sccn23)n1)c1ccccc1O [Compound 1y] | 12.50% ± 4.68% |  | amoebicidal effects / antiamoebic activity against A. castellanii [1]: did not show promising antiamoebic activity
24 | O=C(NCCNc1nccc(-c2c(-c3cccc(O)c3)nc3sccn23)n1)c1cccc(C(F)(F)F)c1 [Compound 1z] | 52.53% ± 1.67% | 44.8 µM | inhibition of amoebae binding to human cells [2]: 42%; encystation blocked (trophozoites prevented from converting into cysts) [3]: 60%; CC50 (human cell lines): 412 µM; EC90 (human cell lines): 80.9 µM
25 | O=C(NCCNc1nccc(-c2c(-c3cccc(O)c3)nc3sccn23)n1)c1cc(C(F)(F)F)cc(C(F)(F)F)c1 [Compound 1za] | 15.71% ± 6.61% |  | amoebicidal effects / antiamoebic activity against A. castellanii [1]: did not show promising antiamoebic activity
26 | O=C(NCCNc1nccc(-c2c(-c3cccc(O)c3)nc3sccn23)n1)c1cc(N2CCOCC2)cc(C(F)(F)F)c1 [Compound 1zc] | 14.79% ± 3.19% |  | amoebicidal effects / antiamoebic activity against A. castellanii [1]: did not show promising antiamoebic activity
27 | CN1CCN(CCNc2nccc(-c3c(-c4cccc(O)c4)nc4sccn34)n2)S1(=O)=O [Compound 1zd] | 58.00% ± 3.41% | 41 µM | inhibition of amoebae binding to human cells [2]: 42%; encystation blocked (trophozoites prevented from converting into cysts) [3]: 62%; amoebicidal effects / antiamoebic activity against A. castellanii [1]: 58%; EC90 (human cell lines): 145 µM; cytotoxicity against HeLa cells (HeLa cells): 37%
